By IC50 is commonly meant the concentration that gives 50% inhibition.

The source of these data is patent US20230416239A1, “COMPOUNDS AND METHODS FOR TREATING A CYTOKINE-MEDIATED DISEASE” (CONSERVATOIRE NATIONAL DES ARTS ET MÉTIERS, priority 2020, published 2023).

Test [1] deals with IL-6 (Homo sapiens, UniProt P05231). Nature of the test: Immunoassay binding test, IL-6 (gp130 receptor, IL-6Ra present). As to conditions: IL-6Ra 200 ng/ml. As for the experimental part:
(§1) Microtiter plates (96 wells) are covered with 100 μl of receptor per well, and incubated overnight at 4° C. The following day, after 2 washes in PBS/Tween20, the plates are saturated with 150 μl of PBS/BSA 2% per well, for 2 h at 37° C. Synthetic compounds are diluted in series (final concentrations: 100 to 0.78 μM) then a fixed amount of cytokine in PBS/BSA 1% is added to the compounds, in a final volume of 120 μl per well. […] The cytokine is diluted in series (six concentrations) in a final volume of 120 μl per well. The cytokine is used in the absence of small molecule as well as the range of SPD304 as positive controls and the absence of cytokine and synthetic molecule as negative control. The different mixtures are incubated for 2 h at 37° C. 100 μl of each mixture are then transferred to the microtiter plate, respecting the plate plan previously defined and incubated overnight at 4° C. After three washes, 100 μl of biotinylated anti-cytokine secondary antibody are added to each well, then incubated for 2 h at 37° C. After three washes, 100 μl of Avidin-HRP (1/500th dilution) are added and incubated for 30 minutes at 37° C. […] The plates are then read with a spectrophotometer at 450 nm, measuring the optical density for each well.
(§2) This binding test is carried out with different cytokines: TNFa, IL-4, IL-6 and IL-13. For IL-6, the incubation of molecules with the cytokine also requires the presence of IL-6Ra at a final concentration of 200 ng/ml.
(§3) The final concentrations used for each of the cytokines are presented below: […]

For test [2], the target named is T1, IL-4 (Homo sapiens, UniProt P05112).
T1 sequence (P05112 25-153): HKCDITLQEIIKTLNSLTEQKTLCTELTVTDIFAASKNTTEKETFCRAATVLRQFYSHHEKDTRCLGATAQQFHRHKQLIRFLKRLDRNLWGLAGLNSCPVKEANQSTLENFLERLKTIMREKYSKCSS
Nature of the test: Immunoassay binding test, IL-4. As to conditions: for IC50: IL-4 400 ng/ml, receptor 100 ng/ml, read-out: BINDING IL4 IC50. How it is done:
as §1, §2, §3

The target of test [3] is TNFa/TNFRI interaction (Homo sapiens, UniProt P01375). Nature of the test: TNFa/TNFRI interaction displacement test.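 On Displacement EC50 TNFa in presence of compound: Difference: SPD304 reference at 20 µM final.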 The settings on record: for Displacement EC50 TNFa in presence of compound: Difference: Compound EC50 minus SPD304 EC50; for Displacement (%): compounds at 50 μM, human TNFRI 100 ng/ml. Format: binding. As for the experimental part: Microtiter plates (96 wells) are covered with 100 μl per well of human TNFRI, at a concentration of 100 ng/ml, then incubated overnight at 4° C. The following day, after two washes in PBS/Tween20, the plates are saturated with 150 μl of PBS/BSA 2% for 2 h at 37° C.
TNFa/TNFRI interaction, sequence (P01375 77-233 limits assumed): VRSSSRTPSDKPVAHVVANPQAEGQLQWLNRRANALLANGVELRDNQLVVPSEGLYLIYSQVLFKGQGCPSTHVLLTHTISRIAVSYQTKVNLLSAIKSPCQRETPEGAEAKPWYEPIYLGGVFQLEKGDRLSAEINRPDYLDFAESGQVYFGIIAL
100 μl of each mixture are then transferred to the microtiter plate, respecting the established plate plan and incubated overnight at 4° C.
After three washes, 100 μl of biotinylated anti-cytokine secondary antibody are added to each well and incubated for 2 h at 37° C. After three washes, 100 Avl Avidin-HRP (dilution 1/500th) are added and incubated for 30 minutes at 37° C. […] The plates are then read with a spectrophotometer at 450 nm, measuring the optical density (OD) for each well.

In test [4] the target is IL-13 (Homo sapiens, UniProt P35225). Kind of test: Immunoassay binding test, IL-13. The settings on record: for IC50: IL-13 400 ng/ml, receptor 100 ng/ml, read-out: BINDING IL13 IC50. How it is done:
as §1, with “The cytokine is used in the absence of small molecule as well as the range of SPD304 as positive controls and the absence of cytokine and synthetic molecule as negative control.” left out
as §2, §3

Test [5] deals with TNFα (Homo sapiens, UniProt P01375). Kind of test: Immunoassay binding test, TNFa. The settings on record: compounds 100 to 0.78 μM; TNFα 10 ng/ml, receptor 100 ng/ml; read-out: BINDING TNF IC50. As for the experimental part:
as §1, with “C.” for “C. Synthetic compounds are diluted in series (final concentrations: 100 to 0.78 μM) then a fixed amount of cytokine in PBS/BSA 1% is added to the compounds, in a final volume of 120 μl per well.”, “The cytokine is used in the absence of small molecule as well as the range of SPD304 as positive controls and the absence of cytokine and synthetic molecule as negative control.” left out
as §2, §3

A value given as a limit tells only on which side of the number the result lay.

TNFα, sequence (P01375 77-233 limits assumed, species assumed): as the sequence (P01375 77-233 limits assumed) above
IL-13, sequence (P35225 25-146, species assumed): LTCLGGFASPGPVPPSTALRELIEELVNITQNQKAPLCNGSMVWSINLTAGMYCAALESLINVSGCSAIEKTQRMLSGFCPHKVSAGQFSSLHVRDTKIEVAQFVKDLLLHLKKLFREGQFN
IL-6, sequence (P05231 30-212, species assumed): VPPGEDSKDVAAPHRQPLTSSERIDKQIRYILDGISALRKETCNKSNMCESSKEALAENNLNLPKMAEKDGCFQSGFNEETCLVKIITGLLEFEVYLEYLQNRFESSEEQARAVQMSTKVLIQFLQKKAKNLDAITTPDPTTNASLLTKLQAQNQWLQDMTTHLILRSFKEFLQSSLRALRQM

`FC(F)(F)c1cccc(-n2cc(CN(Cc3ccccn3)CC3CCCN(C4CCCCC4)C3)c3ccccc32)c1` (stereo not drawn) [Compound 2]: in test [1], the “BINDING IL6 % Neutra at 100 μM” value was determined as 2%. For the same molecule, in test [2], the “BINDING IL4 % Neutra at 100 μM” value was found to be 97.8% and the concentration for half-maximal inhibition (IC50) stood at 3.3 µM. For the same molecule, in test [3], the “Displacement EC50 TNFa in presence of compound: Difference” value came to 14.9 ng/mL and the “Displacement (%)” value is 183%. Besides, in test [4], the “BINDING IL13 % Neutra at 100 μM” value is recorded as 97.1% and the IC50 came to 1.4 µM. Besides, the IC50 in test [5] was found to be 19.9 µM.
`CCN(CCCCN(Cc1cccnc1F)Cc1cn(S(=O)(=O)c2ccccc2)c2ccccc12)C1CCCCC1` [Compound 66, N′-cyclohexyl-N′-ethyl-N^4-((2-fluoropyridin-3-yl)methyl)-N^4-((1-(phenylsulfonyl)-1H-indol-3-yl)methyl)butane-1,4-diamine]: the “BINDING IL6 % Neutra at 100 μM” value in test [1] stood at 3%. The “BINDING IL4 % Neutra at 100 μM” value in test [2] is given as 89.1%. The concentration for half-maximal inhibition (IC50) turned out to be 4.7 µM in test [2], 36 µM in test [4] and 6.4 µM in test [5]. Moreover, the “Displacement (%)” value in test [3] is recorded as 215%. Further, in test [4], the “BINDING IL13 % Neutra at 100 μM” value turned out to be 85.1%.
As to `CN(CCCCCN(Cc1cccnc1)Cc1cn(S(=O)(=O)c2ccccc2)c2ccccc12)C1CCCCC1` [Compound 36], the “BINDING IL6 % Neutra at 100 μM” value in test [1] was −1.8%. Also, in test [2], the “BINDING IL4 % Neutra at 100 μM” value is listed as 97.4% and the IC50 amounted to 3.4 µM. For the same molecule, in test [3], the “Displacement (%)” value is 165%. Moreover, in test [4], the “BINDING IL13 % Neutra at 100 μM” value was 95% and the IC50 came out at 19.8 µM. Also, the concentration for half-maximal inhibition (IC50) in test [5] came to 3.9 µM.
As to `CN(CCCN(Cc1ccncc1)Cc1cn(-c2cccc(C(F)(F)F)c2)c2ccccc12)C1CCCCC1` [Compound 14], in test [1], the “BINDING IL6 % Neutra at 100 μM” value is given as 2.8%. Also, in test [2], the “BINDING IL4 % Neutra at 100 μM” value was determined as 98.4% and the half-maximal inhibitory concentration (IC50) was determined as 5.3 µM. For the same molecule, the “Displacement (%)” value in test [3] is reported as 149%. In test [4], the “BINDING IL13 % Neutra at 100 μM” value is 91.2% and the IC50 was greater than 50 µM. Further, in test [5], the concentration for half-maximal inhibition (IC50) came out at 11.8 µM.
Regarding `CN(CCCCN(Cc1cccnc1)Cc1cn(-c2cccc(C(F)(F)F)c2)c2ccccc12)C1CCCCC1` [Compound 23], the “BINDING IL6 % Neutra at 100 μM” value in test [1] was 5.6%. Also, in test [2], the “BINDING IL4 % Neutra at 100 μM” value was determined as 98.1% and the IC50 came out at 4.9 µM. Also, in test [3], the “Displacement EC50 TNFa in presence of compound: Difference” value was 5.5 ng/mL and the “Displacement (%)” value came to 140%. Moreover, in test [4], the “BINDING IL13 % Neutra at 100 μM” value was determined as 85.8% and the half-maximal inhibitory concentration (IC50) was greater than 50 µM. Also, the IC50 in test [5] is 9.3 µM.
With `O=S(=O)(c1ccccc1)n1cc(CN(CCCCCNC2CCCCC2)Cc2cccnc2F)c2ccccc21` [Compound 46, N1-cyclohexyl-N5-((2-fluoropyridin-3-yl)methyl)-N5-((1-(phenylsulfonyl)-1H-indol-3-yl)methyl)pentane-1,5-diamine], in test [3], the “Displacement (%)” value is 124%. Also, the IC50 in test [5] was 10.8 µM.
Take `CCCN(CCCCN(Cc1cccnc1F)Cc1cn(S(=O)(=O)c2ccccc2)c2ccccc12)C1CCCCC1` [Compound 67, N′-cyclohexyl-N^4-((2-fluoropyridin-3-yl)methyl)-N^4-((1-(phenylsulfonyl)-1H-indol-3-yl)methyl)-N′-propylbutane-1,4-diamine]: in test [3], the “Displacement (%)” value is 219%. Besides, in test [5], the IC50 was found to be 6.7 µM.
For `CN(CCCCN(Cc1ccc(F)nc1)Cc1cn(S(=O)(=O)c2ccccc2)c2ccccc12)C1CCCCC1` [Compound 57, N1-cyclohexyl-N4-((6-fluoropyridin-3-yl)methyl)-N1-methyl-N4-((1-(phenylsulfonyl)-1H-indol-3-yl)methyl)butane-1,4-diamine] the same measures were 113% and 9.4 µM.
For the molecule `CN1CCN(S(=O)(=O)n2cc(CN(CCOCCN(C)C3CCCCC3)Cc3cccnc3F)c3ccccc32)CC1` [Compound 111, N-(2-(2-(((2-fluoropyridin-3-yl)methyl)((1-((4-methylpiperazin-1-yl)sulfonyl)-1H-indol-3-yl)methyl)amino)ethoxy)ethyl)-N-methylcyclohexanamine], in test [3], the “Displacement (%)” value amounted to 224%. Besides, the IC50 in test [5] was determined as 6 µM.
For `CN(CCOCCN(Cc1cccnc1F)Cc1cn(S(=O)(=O)N2CCCCC2)c2ccccc12)C1CCCCC1` [Compound 112, N-(2-(2-(((2-fluoropyridin-3-yl)methyl) ((1-(piperidin-1-ylsulfonyl)-1H-indol-3-yl)methyl)amino)ethoxy)ethyl)-N-methylcyclohexanamine] the same measures were 245% and 13 µM.
For `O=S(=O)(c1ccccc1)n1cc(CN(CCCCNC2CCCCC2)Cc2ccc(F)nc2)c2ccccc21` [Compound 55, N1-cyclohexyl-N4-((6-fluoropyridin-3-yl)methyl)-N4-((1-(phenylsulfonyl)-1H-indol-3-yl)methyl)butane-1,4-diamine] the same measures were 172% and 7.8 µM.
The corresponding values for `O=S(=O)(c1ccccc1)n1cc(CN(CCCCCNCc2ccnc(F)c2)Cc2ccnc(F)c2)c2ccccc21` [Compound 61] are 64% and 29.8 µM.
Turning to `O=S(=O)(c1ccccc1)n1cc(CN(CCCCNC2CCCCC2)Cc2ccnc(F)c2)c2ccccc21` [Compound 44, N1-cyclohexyl-N4-((2-fluoropyridin-4-yl)methyl)-N4-((1-(phenylsulfonyl)-1H-indol-3-yl)methyl)butane-1,4-diamine], the “Displacement (%)” value in test [3] is 109%. The IC50 in test [5] worked out at 8.6 µM.
`CN(CCCCN(Cc1cccnc1F)Cc1cn(S(=O)(=O)c2ccccc2)c2ccccc12)C1CCCCCCC1` [Compound 76, N′-cyclooctyl-N^4-((2-fluoropyridin-3-yl)methyl)-N′-methyl-N^4-((1-(phenylsulfonyl)-1H-indol-3-yl)methyl)butane-1,4-diamine]: the “BINDING IL6 % Neutra at 100 μM” value in test [1] stood at 1%. Further, in test [2], the “BINDING IL4 % Neutra at 100 μM” value is given as 92.8% and the concentration for half-maximal inhibition (IC50) stood at 4.6 µM. Also, in test [3], the “Displacement (%)” value stood at 154%. In addition, in test [5], the 50% inhibitory concentration (IC50) amounted to 7.9 µM.
Regarding `CN(CCCCN(Cc1cccnc1F)Cc1cn(S(=O)(=O)N2CCCC2)c2ccccc12)C1CCCCC1` [Compound 110, N1-cyclohexyl-N4-((2-fluoropyridin-3-yl)methyl)-N1-methyl-N4-((1-(pyrrolidin-1-ylsulfonyl)-1H-indol-3-yl)methyl)butane-1,4-diamine], the “Displacement (%)” value in test [3] is 83%. Besides, the IC50 in test [5] is 17 µM.
